25 molecules from patent US10035790B2, “RORγ modulators” (BRISTOL-MYERS SQUIBB COMPANY, priority 2012, dated 2018) can be followed below.

pIC50: −log10 of the molar value.

For the assay, the target named is T1, ligand binding domain of human RORγ (A262-S507) (Homo sapiens, UniProt P51449).
T1 construct: made in house; host or cells: E. coli
T1 sequence (P51449 262-507): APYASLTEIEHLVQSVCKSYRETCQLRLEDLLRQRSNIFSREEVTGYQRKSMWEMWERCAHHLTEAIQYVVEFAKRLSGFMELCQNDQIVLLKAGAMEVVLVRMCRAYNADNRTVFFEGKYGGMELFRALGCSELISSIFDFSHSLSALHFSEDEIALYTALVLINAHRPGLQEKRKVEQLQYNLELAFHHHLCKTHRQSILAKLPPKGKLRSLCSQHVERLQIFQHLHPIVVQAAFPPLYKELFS
Briefly: General RORγ SPA binding assay (competition with [3H]25-hydroxycholesterol). The following applies: RORγ SPA binding assay, inhibition of [3H]25-hydroxycholesterol binding; read-out: IC50. The essentials: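 Scintillation counts from copper His-tag SPA beads (4 mg/mL, 30 min) gave percent inhibition of radioligand binding, from which IC50 values are derived. The E. coli-expressed His-tagged domain (50 nM) is first exposed to compound for 15 min at room temperature in PBS containing 0.5% fatty acid free BSA.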
For `CSc1ncc(/C(C)=N/Oc2ccnc(Cl)c2)c(C2CCN(C(=O)Nc3c(F)cccc3F)CC2)n1` [Compound B58, 4-[5-{(1E)-N-[(2-Chloropyridin-4-yl)oxy]ethanimidoyl}-2-(methylthio)pyrimidin-4-yl]-N-(2,6-difluorophenyl)piperidine-1-carboxamide], the pIC50 was 5.39. In the case of `C/C(=N\Oc1ccnc(Cl)c1)c1cnc(N)nc1C1CCN(C(=O)Nc2c(F)cccc2F)CC1` [Compound B59, 4-(2-Amino-5-{(1E)-N-[(2-chloropyridin-4-yl)oxy]ethanimidoyl}pyrimidin-4-yl)-N-(2,6-difluorophenyl)piperidine-1-carboxamide], the pIC50 is 7.31.

As for `CCNc1ncc(/C(C)=N/Oc2ccnc(C(F)(F)F)c2)c(C2CCN(C(=O)Nc3c(F)cccc3F)CC2)n1` [Compound B60, N-(2,6-Difluorophenyl)-4-{2-(ethylamino)-5-[(1E)-N-{[2-(trifluoromethyl)pyridin-4-yl]oxy}ethanimidoyl]pyrimidin-4-yl}piperidine-1-carboxamide], the pIC50 was 6.94. Next, `C/C(=N\Oc1ccnc(C(F)(F)F)c1)c1cnc(N(C)C)nc1C1CCN(C(=O)Nc2c(F)cccc2F)CC1` [Compound B61, N-(2,6-Difluorophenyl)-4-{2-(dimethylamino)-5-[(1E)-N-{[2-(trifluoromethyl)pyridin-4-yl]oxy}ethanimidoyl]pyrimidin-4-yl}piperidine-1-carboxamide]: 6.44; `Cc1nc(C)c(-c2nc(-c3cccc(C(F)(F)F)c3)no2)c(C2CCN(C(=O)Cc3c(F)cccc3F)CC2)n1` [Compound C1, 4-{1-[(2,6-Difluorophenyl)acetyl]piperidin-4-yl}-2,6-dimethyl-5-{3-[3-(trifluoromethyl)phenyl]-1,2,4-oxadiazol-5-yl}pyrimidine]: 6.94. The figure for `Cc1nc(C)c(-c2nc(-c3ccc(F)cc3)no2)c(C2CCN(C(=O)Cc3c(F)cccc3F)CC2)n1` [Compound C2, 2-(2,6-difluorophenyl)-1-(4-(5-(3-(4-fluorophenyl)-1,2,4-oxadiazol-5-yl)-2,6-dimethylpyrimidin-4-yl)piperidin-1-yl)ethanone] is 6.47; for `Cc1nc(C)c(-c2nc(Cc3ccc(F)cc3)no2)c(C2CCN(C(=O)Cc3c(F)cccc3F)CC2)n1` [Compound C3, 2-(2,6-difluorophenyl)-1-(4-(5-(3-(4-fluorobenzyl)-1,2,4-oxadiazol-5-yl)-2,6-dimethylpyrimidin-4-yl)piperidin-1-yl)ethanone] it is 6.22. Next, `Cc1nc(C)c(-c2nc(-c3cccc(Cl)c3)no2)c(C2CCN(C(=O)Cc3c(F)cccc3F)CC2)n1` [Compound C4, 1-(4-(5-(3-(3-chlorophenyl)-1,2,4-oxadiazol-5-yl)-2,6-dimethylpyrimidin-4-yl)piperidin-1-yl)-2-(2,6-difluorophenyl)ethanone]: 6.21; `Cc1nc(C)c(-c2nnc(-c3ccnc(C(F)(F)F)n3)o2)c(C2CCN(C(=O)Cc3c(F)cccc3F)CC2)n1` [Compound C5, 4-{1-[(2,6-Difluorophenyl)acetyl]piperidin-4-yl}-2,6-dimethyl-5-{5-[2-(trifluoromethyl)pyrimidin-4-yl]-1,3,4-oxadiazol-2-yl}pyrimidine]: 8.20; `Cc1nc(C)c(-c2nnc(-c3cccc(C(F)(F)F)n3)o2)c(C2CCN(C(=O)Cc3c(F)cccc3F)CC2)n1` [Compound C6, 2-(2,6-difluorophenyl)-1-(4-(2,6-dimethyl-5-(5-(6-(trifluoromethyl)pyridin-2-yl)-1,3,4-oxadiazol-2-yl)pyrimidin-4-yl)piperidin-1-yl)ethanone]: 8.28.

For the molecule `Cc1cc(-c2nnc(-c3c(C)nc(C)nc3C3CCN(C(=O)Cc4c(F)cccc4F)CC3)o2)cc(Cl)n1` [Compound C19, 1-(4-(5-(5-(2-chloro-6-methylpyridin-4-yl)-1,3,4-oxadiazol-2-yl)-2,6-dimethylpyrimidin-4-yl)piperidin-1-yl)-2-(2,6-difluorophenyl)ethanone], the pIC50 is 6.57.

Regarding `Cc1nc(C)c(-c2nnc(-c3ccc(Cl)cn3)o2)c(C2CCN(C(=O)Cc3c(F)cccc3F)CC2)n1` [Compound C20, 1-(4-(5-(5-(5-chloropyridin-2-yl)-1,3,4-oxadiazol-2-yl)-2,6-dimethylpyrimidin-4-yl)piperidin-1-yl)-2-(2,6-difluorophenyl)ethanone], the pIC50 is 6.18. Next, `Cc1nc(C)c(-c2nnc(-c3cc(Cl)ccn3)o2)c(C2CCN(C(=O)Cc3c(F)cccc3F)CC2)n1` [Compound C21, 1-(4-(5-(5-(4-chloropyridin-2-yl)-1,3,4-oxadiazol-2-yl)-2,6-dimethylpyrimidin-4-yl)piperidin-1-yl)-2-(2,6-difluorophenyl)ethanone]: 5.52. Next, `Cc1nc(C)c(-c2nnc(-c3ccnc(Cl)c3)o2)c(C2CCN(C(=O)Cc3c(F)cccc3F)CC2)n1` [Compound C22, 1-(4-(5-(5-(2-chloropyridin-4-yl)-1,3,4-oxadiazol-2-yl)-2,6-dimethylpyrimidin-4-yl)piperidin-1-yl)-2-(2,6-difluorophenyl)ethanone]: 5.40; `Cc1nc(C)c(-c2nnc(-c3ccc(Cl)nc3)o2)c(C2CCN(C(=O)Cc3c(F)cccc3F)CC2)n1` [Compound C23, 1-(4-(5-(5-(6-chloropyridin-3-yl)-1,3,4-oxadiazol-2-yl)-2,6-dimethylpyrimidin-4-yl)piperidin-1-yl)-2-(2,6-difluorophenyl)ethanone]: 5.28; `Cc1nc(C)c(-c2nnc(-c3ccnc(C(F)(F)F)n3)o2)c(C2CCN(C(=O)c3c(F)cccc3F)CC2)n1` [Compound C24, 4-{1-[(2,6-Difluorophenyl)carbonyl]piperidin-4-yl}-2,6-dimethyl-5-{5-[2-(trifluoromethyl)pyrimidin-4-yl]-1,3,4-oxadiazol-2-yl}pyrimidine]: 6.56. The figure for `Cc1nc(C)c(-c2nnc(-c3ccnc(C(F)(F)F)n3)o2)c(C2CCN(C(=O)Cc3ccccc3F)CC2)n1` [Compound C25, 1-(4-(2,6-dimethyl-5-(5-(2-(trifluoromethyl)pyrimidin-4-yl)-1,3,4-oxadiazol-2-yl)pyrimidin-4-yl)piperidin-1-yl)-2-(2-fluorophenyl)ethanone] is 7.64; for `Cc1nc(C)c(-c2nnc(-c3ccnc(C(F)(F)F)n3)o2)c(C2CCN(C(=O)C(C)c3c(F)cccc3F)CC2)n1` (stereo not shown) [Compound C26, 2-(2,6-difluorophenyl)-1-(4-(2,6-dimethyl-5-(5-(2-(trifluoromethyl)pyrimidin-4-yl)-1,3,4-oxadiazol-2-yl)pyrimidin-4-yl)piperidin-1-yl)propan-1-one] it is 6.63.

Take `Cc1nc(C)c(-c2nnc(-c3ccnc(C(F)(F)F)n3)o2)c(C2CCN(C(=O)c3c(F)cccc3Cl)CC2)n1` [Compound C27, (2-chloro-6-fluorophenyl)(4-(2,6-dimethyl-5-(5-(2-(trifluoromethyl)pyrimidin-4-yl)-1,3,4-oxadiazol-2-yl)pyrimidin-4-yl)piperidin-1-yl)methanone]: the pIC50 was 6.34. In the case of `Cc1nc(C)c(-c2nnc(-c3ccnc(C(F)(F)F)n3)o2)c(C2CCN(C(=O)Nc3c(F)cccc3F)CC2)n1` [Compound C28, N-(2,6-Difluorophenyl)-4-(2,6-dimethyl-5-{5-[2-(trifluoromethyl)pyrimidin-4-yl]-1,3,4-oxadiazol-2-yl}pyrimidin-4-yl)piperidine-1-carboxamide], the pIC50 was 7.19. Next, `Cc1nc(C)c(-c2nnc(-c3ccnc(C(F)(F)F)n3)o2)c(C2CCN(C(=O)Nc3ccccc3Cl)CC2)n1` [Compound C29, N-(2-chlorophenyl)-4-(2,6-dimethyl-5-{5-[2-(trifluoromethyl)pyrimidin-4-yl]-1,3,4-oxadiazol-2-yl}pyrimidin-4-yl)piperidine-1-carboxamide]: 6.80; `Cc1nc(C)c(-c2nnc(-c3ccnc(C(F)(F)F)n3)o2)c(C2CCN(C(=O)Nc3ccccc3C(F)(F)F)CC2)n1` [Compound C30, 4-(2,6-dimethyl-5-{5-[2-(trifluoromethyl)pyrimidin-4-yl]-1,3,4-oxadiazol-2-yl}pyrimidin-4-yl)-N-[2-(trifluoromethyl)phenyl]piperidine-1-carboxamide]: 7.30; `Cc1nc(C)c(-c2nnc(-c3ccnc(C(F)(F)F)n3)o2)c(C2CCN(C(=O)Nc3c(Cl)cccc3Cl)CC2)n1` [Compound C31, N-(2,6-dichlorophenyl)-4-(2,6-dimethyl-5-{5-[2-(trifluoromethyl)pyrimidin-4-yl]-1,3,4-oxadiazol-2-yl}pyrimidin-4-yl)piperidine-1-carboxamide]: 7.30. `Cc1nc(C)c(-c2nnc(-c3ccnc(C(F)(F)F)n3)o2)c(C2CCN(C(=O)Nc3ccccc3OC(F)(F)F)CC2)n1` [Compound C32, 4-(2,6-dimethyl-5-{5-[2-(trifluoromethyl)pyrimidin-4-yl]-1,3,4-oxadiazol-2-yl}pyrimidin-4-yl)-N-{2-[(trifluoromethyl)oxy]phenyl}piperidine-1-carboxamide]: the pIC50 was 6.80.

As for `Cc1nc(C)c(-c2nnc(-c3ccnc(C(F)(F)F)n3)o2)c(C2CCN(S(=O)(=O)c3c(F)cccc3F)CC2)n1` [Compound C33, 4-{1-[(2,6-Difluorophenyl)sulfonyl]piperidin-4-yl}-2,6-dimethyl-5-{5-[2-(trifluoromethyl)pyrimidin-4-yl]-1,3,4-oxadiazol-2-yl}pyrimidine], the pIC50 was 6.07.

Broadly, the pIC50 is the negative decadic logarithm of the IC50, by convention in mol/L.
